Results from the kinase profiling compilation of Christmann-Franck et al. (2016).

What was measured:
Assay in all cases: KINOMEscan competition binding
Details in all cases: compound 10.0 µM
ADCK3 (human) = ADCK3 (human) (UniProt Q8NI60)
AURKB (human) = AURKB (human) (UniProt Q96GD4)
CDC42BPG (human) = CDC42BPG (human) (UniProt Q6DT37)
CDK13 (human) = CDK13 (human) (UniProt Q14004)
CDK17 (human) = CDK17 (human) (UniProt Q00537)
CSF1R (human) = CSF1R (human) (UniProt P07333)
[1] = tested on: EGFR (human), P00533 [L858R]
[2] = tested on: EGFR (human), P00533 [P753S; 747-752 del]
[3] = tested on: EIF2AK4 KD2 (human), Q9P2K8 [S808G]
EIF2AK4 KD2 (human), Q9P2K8 [S808G], sequence (Q9P2K8 whole entry S808G, looked up): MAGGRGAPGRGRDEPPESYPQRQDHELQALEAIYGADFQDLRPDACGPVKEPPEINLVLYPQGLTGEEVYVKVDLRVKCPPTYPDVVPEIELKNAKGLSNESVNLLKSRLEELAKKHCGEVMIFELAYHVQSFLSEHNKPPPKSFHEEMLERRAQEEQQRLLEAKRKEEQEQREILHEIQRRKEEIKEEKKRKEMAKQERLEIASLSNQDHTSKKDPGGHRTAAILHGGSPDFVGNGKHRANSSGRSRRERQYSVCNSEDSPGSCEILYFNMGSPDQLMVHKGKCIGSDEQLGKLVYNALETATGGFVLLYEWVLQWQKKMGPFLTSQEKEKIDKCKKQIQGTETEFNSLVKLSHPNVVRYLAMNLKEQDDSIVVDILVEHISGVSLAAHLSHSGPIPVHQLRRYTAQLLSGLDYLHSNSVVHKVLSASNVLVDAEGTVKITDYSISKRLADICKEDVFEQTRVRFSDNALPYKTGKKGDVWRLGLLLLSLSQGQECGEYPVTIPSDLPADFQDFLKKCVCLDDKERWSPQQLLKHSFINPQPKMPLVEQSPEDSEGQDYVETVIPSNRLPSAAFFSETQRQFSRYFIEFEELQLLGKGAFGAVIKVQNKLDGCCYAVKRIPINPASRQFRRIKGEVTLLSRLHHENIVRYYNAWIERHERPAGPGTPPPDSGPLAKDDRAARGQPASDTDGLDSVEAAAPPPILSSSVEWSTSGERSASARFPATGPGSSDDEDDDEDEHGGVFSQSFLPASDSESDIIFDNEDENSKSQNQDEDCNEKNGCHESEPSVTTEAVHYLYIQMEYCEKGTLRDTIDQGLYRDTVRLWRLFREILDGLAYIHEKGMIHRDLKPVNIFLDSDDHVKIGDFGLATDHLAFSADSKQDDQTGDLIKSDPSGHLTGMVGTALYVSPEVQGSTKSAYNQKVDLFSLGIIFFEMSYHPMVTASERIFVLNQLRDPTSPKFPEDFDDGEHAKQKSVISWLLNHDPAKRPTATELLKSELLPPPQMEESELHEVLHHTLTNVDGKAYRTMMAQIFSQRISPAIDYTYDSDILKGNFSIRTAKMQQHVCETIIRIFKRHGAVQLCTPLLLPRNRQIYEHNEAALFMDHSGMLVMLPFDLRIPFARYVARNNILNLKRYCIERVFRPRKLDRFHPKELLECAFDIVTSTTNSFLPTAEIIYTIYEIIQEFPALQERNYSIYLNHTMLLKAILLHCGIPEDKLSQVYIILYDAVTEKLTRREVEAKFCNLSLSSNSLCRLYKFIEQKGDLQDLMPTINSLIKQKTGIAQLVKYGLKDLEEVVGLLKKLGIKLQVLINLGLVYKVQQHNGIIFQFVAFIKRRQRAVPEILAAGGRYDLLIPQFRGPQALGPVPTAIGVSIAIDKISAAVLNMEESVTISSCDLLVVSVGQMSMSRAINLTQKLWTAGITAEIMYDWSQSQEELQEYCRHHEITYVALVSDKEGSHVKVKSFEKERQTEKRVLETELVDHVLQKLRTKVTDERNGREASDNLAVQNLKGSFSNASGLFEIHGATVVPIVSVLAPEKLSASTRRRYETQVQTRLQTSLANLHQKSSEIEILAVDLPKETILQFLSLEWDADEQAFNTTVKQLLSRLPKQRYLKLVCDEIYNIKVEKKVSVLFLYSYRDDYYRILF

EPHB2 (human) = EPHB2 (human) (UniProt P29323)
EPHB6 (human) = EPHB6 (human) (UniProt O15197)
ERBB4 (human) = ERBB4 (human) (UniProt Q15303)
FES (human) = FES (human) (UniProt P07332)
GRK4 (human) = GRK4 (human) (UniProt P32298)
IGF1R (human) = IGF1R (human) (UniProt P08069)
KIT (human) = KIT (human) (UniProt P10721)
KIT (human), sequence (P10721 whole entry, looked up): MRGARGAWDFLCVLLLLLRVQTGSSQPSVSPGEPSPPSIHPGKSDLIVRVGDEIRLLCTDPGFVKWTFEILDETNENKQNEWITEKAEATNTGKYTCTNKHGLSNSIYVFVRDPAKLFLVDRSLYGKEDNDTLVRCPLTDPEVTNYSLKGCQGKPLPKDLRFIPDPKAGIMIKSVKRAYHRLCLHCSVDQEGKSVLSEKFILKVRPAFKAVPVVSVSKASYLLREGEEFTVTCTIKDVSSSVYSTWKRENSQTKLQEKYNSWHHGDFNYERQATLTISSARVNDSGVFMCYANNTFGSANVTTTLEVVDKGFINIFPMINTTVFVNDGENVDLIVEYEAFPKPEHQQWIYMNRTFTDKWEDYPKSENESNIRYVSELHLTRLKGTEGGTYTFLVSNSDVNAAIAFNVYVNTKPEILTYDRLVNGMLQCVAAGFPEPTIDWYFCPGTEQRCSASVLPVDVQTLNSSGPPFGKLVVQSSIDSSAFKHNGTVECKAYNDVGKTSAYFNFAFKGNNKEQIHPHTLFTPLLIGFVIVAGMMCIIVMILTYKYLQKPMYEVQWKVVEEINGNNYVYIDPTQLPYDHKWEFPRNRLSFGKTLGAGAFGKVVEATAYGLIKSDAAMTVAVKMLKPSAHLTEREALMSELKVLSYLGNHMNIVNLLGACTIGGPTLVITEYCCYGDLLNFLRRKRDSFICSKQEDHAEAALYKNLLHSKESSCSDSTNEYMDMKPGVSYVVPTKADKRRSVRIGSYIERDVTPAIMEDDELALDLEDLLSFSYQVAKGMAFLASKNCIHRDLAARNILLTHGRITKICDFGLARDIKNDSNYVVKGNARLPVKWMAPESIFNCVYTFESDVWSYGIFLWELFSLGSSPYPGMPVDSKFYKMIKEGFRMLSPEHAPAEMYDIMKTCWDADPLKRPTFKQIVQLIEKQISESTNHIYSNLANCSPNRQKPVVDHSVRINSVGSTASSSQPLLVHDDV

[4] = tested on: KIT (human), P10721 [D816H]
KIT (human), P10721 [D816H], sequence (P10721 whole entry D816H, looked up): as the sequence (P10721 whole entry, looked up) above, with D816H counted along it

[5] = tested on: LRRK2 (human), Q5S007 [G2019S]
MAP2K3 (human) = MAP2K3 (human) (UniProt P46734)
MAP3K12 (human) = MAP3K12 (human) (UniProt Q12852)
MAP3K5 (human) = MAP3K5 (human) (UniProt Q99683)
MAP3K5 (human), sequence (Q99683 whole entry, looked up): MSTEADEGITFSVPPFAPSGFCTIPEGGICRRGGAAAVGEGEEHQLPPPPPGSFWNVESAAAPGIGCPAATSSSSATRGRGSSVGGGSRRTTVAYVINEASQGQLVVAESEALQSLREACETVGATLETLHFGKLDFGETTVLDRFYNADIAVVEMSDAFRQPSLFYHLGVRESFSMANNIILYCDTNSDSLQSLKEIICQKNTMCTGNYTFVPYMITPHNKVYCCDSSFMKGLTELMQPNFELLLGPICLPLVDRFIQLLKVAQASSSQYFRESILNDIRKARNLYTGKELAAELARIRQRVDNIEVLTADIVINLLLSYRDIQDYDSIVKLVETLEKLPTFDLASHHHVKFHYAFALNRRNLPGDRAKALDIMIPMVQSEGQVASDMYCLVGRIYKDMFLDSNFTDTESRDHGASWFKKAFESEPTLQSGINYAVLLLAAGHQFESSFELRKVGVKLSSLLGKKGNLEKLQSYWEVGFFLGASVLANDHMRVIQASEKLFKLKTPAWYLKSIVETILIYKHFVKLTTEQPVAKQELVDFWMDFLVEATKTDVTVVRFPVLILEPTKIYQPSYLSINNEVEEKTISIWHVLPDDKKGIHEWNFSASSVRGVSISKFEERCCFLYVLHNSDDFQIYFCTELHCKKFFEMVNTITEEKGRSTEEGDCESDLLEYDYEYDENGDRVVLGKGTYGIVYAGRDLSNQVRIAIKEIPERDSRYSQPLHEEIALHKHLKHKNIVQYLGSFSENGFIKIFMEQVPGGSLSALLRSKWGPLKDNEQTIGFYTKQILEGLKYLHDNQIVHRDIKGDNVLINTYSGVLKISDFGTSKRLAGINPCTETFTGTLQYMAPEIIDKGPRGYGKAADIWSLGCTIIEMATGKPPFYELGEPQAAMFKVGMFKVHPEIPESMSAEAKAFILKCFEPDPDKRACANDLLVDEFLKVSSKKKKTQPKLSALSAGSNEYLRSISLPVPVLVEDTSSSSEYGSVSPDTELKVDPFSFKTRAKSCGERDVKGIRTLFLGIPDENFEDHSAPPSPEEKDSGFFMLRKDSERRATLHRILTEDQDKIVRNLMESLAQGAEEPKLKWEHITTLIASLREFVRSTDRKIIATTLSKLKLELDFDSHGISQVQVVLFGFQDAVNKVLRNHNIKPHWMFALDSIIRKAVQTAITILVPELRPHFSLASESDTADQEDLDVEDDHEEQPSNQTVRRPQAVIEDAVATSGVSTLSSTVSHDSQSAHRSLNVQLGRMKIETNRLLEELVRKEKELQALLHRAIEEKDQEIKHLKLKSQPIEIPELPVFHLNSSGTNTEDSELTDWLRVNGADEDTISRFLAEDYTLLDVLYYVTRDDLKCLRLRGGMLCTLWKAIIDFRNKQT

MAP3K9 (human) = MAP3K9 (human) (UniProt P80192)
MAP4K1 (human) = MAP4K1 (human) (UniProt Q92918)
MAP4K4 (human) = MAP4K4 (human) (UniProt O95819)
MET (human) = MET (human) (UniProt P08581)
MYO3B (human) = MYO3B (human) (UniProt Q8WXR4)
NEK2 (human) = NEK2 (human) (UniProt P51955)
NTRK1 (human) = NTRK1 (human) (UniProt P04629)
PIM1 (human) = PIM1 (human) (UniProt P11309)
PLK2 (human) = PLK2 (human) (UniProt Q9NYY3)
PRKAA2 (human) = PRKAA2 (human) (UniProt P54646)
PRKAA2 (human), sequence (P54646 whole entry, looked up): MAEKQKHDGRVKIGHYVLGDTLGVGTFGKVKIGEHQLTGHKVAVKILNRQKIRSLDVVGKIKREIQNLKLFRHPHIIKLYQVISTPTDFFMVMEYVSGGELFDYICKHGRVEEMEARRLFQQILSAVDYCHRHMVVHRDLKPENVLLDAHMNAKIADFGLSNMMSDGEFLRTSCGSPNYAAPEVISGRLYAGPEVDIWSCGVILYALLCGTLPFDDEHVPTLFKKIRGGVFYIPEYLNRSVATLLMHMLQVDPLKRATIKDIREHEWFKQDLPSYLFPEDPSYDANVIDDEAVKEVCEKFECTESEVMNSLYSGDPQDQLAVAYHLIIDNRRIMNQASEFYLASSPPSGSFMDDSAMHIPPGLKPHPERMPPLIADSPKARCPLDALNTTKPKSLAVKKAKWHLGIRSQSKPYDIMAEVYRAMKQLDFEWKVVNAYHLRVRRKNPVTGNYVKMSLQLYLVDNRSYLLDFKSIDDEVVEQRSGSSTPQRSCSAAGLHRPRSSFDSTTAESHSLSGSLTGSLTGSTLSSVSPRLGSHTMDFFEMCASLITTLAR

PTK2B (human) = PTK2B (human) (UniProt Q14289)
RIOK2 (human) = RIOK2 (human) (UniProt Q9BVS4)
RPS6KA1 KD2 (human) = RPS6KA1 KD2 (human) (UniProt Q15418)
SGK110 (human) = SGK110 (human) (UniProt P0C264)
STK11 (human) = STK11 (human) (UniProt Q15831)
STK32B (human) = STK32B (human) (UniProt Q9NY57)
STK32B (human), sequence (Q9NY57 whole entry, looked up): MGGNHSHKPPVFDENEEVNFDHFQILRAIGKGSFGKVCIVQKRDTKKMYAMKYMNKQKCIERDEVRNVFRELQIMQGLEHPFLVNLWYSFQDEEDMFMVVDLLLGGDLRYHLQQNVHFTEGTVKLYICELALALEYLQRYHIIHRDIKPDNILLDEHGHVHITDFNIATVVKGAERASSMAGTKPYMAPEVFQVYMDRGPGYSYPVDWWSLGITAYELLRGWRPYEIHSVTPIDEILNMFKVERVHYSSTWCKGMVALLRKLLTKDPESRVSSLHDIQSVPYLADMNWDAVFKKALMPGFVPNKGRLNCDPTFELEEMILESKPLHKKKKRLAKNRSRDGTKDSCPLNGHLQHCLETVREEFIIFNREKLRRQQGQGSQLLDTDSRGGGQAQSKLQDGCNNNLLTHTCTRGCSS

STK35 (human) = STK35 (human) (UniProt Q8TDR2)
TRPM6 (human) = TRPM6 (human) (UniProt Q9BX84)
VRK2 (human) = VRK2 (human) (UniProt Q86Y07)
WEE2 (human) = WEE2 (human) (UniProt P0C1S8)
YES1 (human) = YES1 (human) (UniProt P07947)

`Cc1cc([C@@H](C)Nc2ccccc2C(=O)O)c2nc(N3CCOCC3)cc(=O)n2c1` showed a kinase still bound, per cent of control (ADCK3 (human)) of 70%, a kinase still bound, per cent of control (AURKB (human)) of 76% and a kinase still bound, per cent of control (CDC42BPG (human)) of 99%. For the same compound, the kinase still bound, per cent of control (CDK13 (human)) was 100%, the kinase still bound, per cent of control (CDK17 (human)) was 100% and the kinase still bound, per cent of control (CSF1R (human)) was 55%. It also gave a kinase still bound, per cent of control [1] of 96%, a kinase still bound, per cent of control [2] of 100% and a kinase still bound, per cent of control [3] of 78%. The kinase still bound, per cent of control (EPHB2 (human)) was 100%, the kinase still bound, per cent of control (EPHB6 (human)) was 40% and the kinase still bound, per cent of control (ERBB4 (human)) was 94%. For the same compound, the kinase still bound, per cent of control (FES (human)) was 100%, the kinase still bound, per cent of control (GRK4 (human)) was 80% and the kinase still bound, per cent of control (IGF1R (human)) was 100%. For the same compound, the kinase still bound, per cent of control (KIT (human)) was 69%, the kinase still bound, per cent of control [4] was 93% and the kinase still bound, per cent of control [5] was 90%. The kinase still bound, per cent of control (MAP2K3 (human)) was 99%, the kinase still bound, per cent of control (MAP3K12 (human)) was 98% and the kinase still bound, per cent of control (MAP3K5 (human)) was 100%. It also gave a kinase still bound, per cent of control (MAP3K9 (human)) of 100%, a kinase still bound, per cent of control (MAP4K1 (human)) of 90% and a kinase still bound, per cent of control (MAP4K4 (human)) of 98%. The kinase still bound, per cent of control (MET (human)) was 95%, the kinase still bound, per cent of control (MYO3B (human)) was 51% and the kinase still bound, per cent of control (NEK2 (human)) was 100%. For the same compound, the kinase still bound, per cent of control (NTRK1 (human)) was 69%, the kinase still bound, per cent of control (PIM1 (human)) was 100% and the kinase still bound, per cent of control (PLK2 (human)) was 100%. For the same compound, the kinase still bound, per cent of control (PRKAA2 (human)) was 91%, the kinase still bound, per cent of control (PTK2B (human)) was 90% and the kinase still bound, per cent of control (RIOK2 (human)) was 35%. For the same compound, the kinase still bound, per cent of control (RPS6KA1 KD2 (human)) was 76%, the kinase still bound, per cent of control (SGK110 (human)) was 68% and the kinase still bound, per cent of control (STK11 (human)) was 97%. For the same compound, the kinase still bound, per cent of control (STK32B (human)) was 100%, the kinase still bound, per cent of control (STK35 (human)) was 96% and the kinase still bound, per cent of control (TRPM6 (human)) was 64%. For the same compound, the kinase still bound, per cent of control (VRK2 (human)) was 83%, the kinase still bound, per cent of control (WEE2 (human)) was 100% and the kinase still bound, per cent of control (YES1 (human)) was 100%.
